Test results: ChEMBL document CHEMBL1201862, “PubChem BioAssay data set” (2004)
Several values for one entry are separate records, joined by “and”; a condition that tells them apart may be missing. Identical values can stand only once.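 96-well plates; 48 h exposure; 5 concentrations. Endpoints by linear interpolation between flanking doses. Not reached: highest tested concentration assigned. At the GI50, growth is halved.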 Activity calls are given as the source filed them. Cut-off read from the data, not from the text of the source: active = GI50 up to about 1.1 µM and inactive = higher.

Columns and labels:
Assay in all cases: NCI-60 cell line screen, 48 h
[1] = tested on: MDA-MB-231
[2] = tested on: Malme-3M
[3] = tested on: U-251
[4] = tested on: SN12C
[5] = tested on: SF-268
[6] = tested on: NCI-H460
[7] = tested on: SW-620
[8] = tested on: Hs-578T
[9] = tested on: SR
[10] = tested on: RPMI-8226
[11] = tested on: SK-MEL-28
[12] = tested on: DU-145
[13] = tested on: MDA-MB-435
[14] = tested on: HCT-15
[15] = tested on: MDA-N
[16] = tested on: K562
[17] = tested on: RXF 393
[18] = tested on: M14
[19] = tested on: OVCAR-5
[20] = tested on: CAKI-1

Structure (SMILES)	GI50 [1]	GI50 [2]	GI50 [3]	GI50 [4]	GI50 [5]	GI50 [6]	GI50 [7]	GI50 [8]	GI50 [9]	GI50 [10]	GI50 [11]	GI50 [12]	GI50 [13]	GI50 [14] [µM]	GI50 [15]	GI50 [16]	GI50 [17]	GI50 [18]	GI50 [19]	GI50 [20]
COc1cc(OC)c(NC2=NCCO2)cc1Cl	26.1 µM (inactive)	68.7 µM (inactive)	39.7 µM (inactive)	44.4 µM (inactive)	39.7 µM (inactive)	21.2 µM (inactive)	> 100 µM (inactive)	61.7 µM (inactive)	27.4 µM (inactive)	46.8 µM (inactive)	44 µM (inactive)	38.2 µM (inactive)	20.1 µM (inactive)	33.9	17.1 µM (inactive)	83.9 µM (inactive)	46.1 µM (inactive)	31.3 µM (inactive)	53.8 µM (inactive)	
CCN(CC)CCNc1ccc2nnn3c4ccc(OC(C)=O)cc4c(=O)c1c23	2.65 µM (inactive)	1.11 µM (active)	2.22 µM (inactive)	2.26 µM (inactive)	3.01 µM (inactive)	0.243 µM (active)	1.11 µM (active)	4.39 µM (inactive)	0.706 µM (active)	1.59 µM (inactive)	13.4 µM (inactive)	2.39 µM (inactive)	5.15 µM (inactive)	1.46	4.61 µM (inactive)		1.11 µM (active)	6.64 µM (inactive)	11.7 µM (inactive)	0.378 µM (active)
CCOP(=O)(OCC)C(NC(=O)OCC(Cl)(Cl)Cl)n1nnc(C(=O)OC)c1C(=O)OC (stereo not given)	> 100 µM (inactive)	> 100 µM (inactive)	> 100 µM (inactive)	> 10 µM (inactive)	> 100 µM (inactive)	> 100 µM (inactive)	> 100 µM (inactive)	> 100 µM (inactive)	> 100 µM (inactive)	> 100 µM (inactive)	> 100 µM (inactive)	> 100 µM (inactive)	> 100 µM (inactive)	> 100	> 100 µM (inactive)	> 100 µM (inactive)	> 100 µM (inactive)	> 100 µM (inactive)		> 100 µM (inactive)
CCC(=O)NC(Nc1ccccc1F)(C(F)(F)F)C(F)(F)F	> 100 µM (inactive)		> 100 µM (inactive)	> 100 µM (inactive)	> 100 µM (inactive)	> 100 µM (inactive)	> 100 µM (inactive)	> 100 µM (inactive)	> 100 µM (inactive)	> 100 µM (inactive)	> 100 µM (inactive)	> 100 µM (inactive)	> 100 µM (inactive)	> 100	> 100 µM (inactive)	> 100 µM (inactive)	> 100 µM (inactive)	> 100 µM (inactive)	> 100 µM (inactive)	> 100 µM (inactive)
Cc1ccc(CC2(OCCN(C)C)CCC(C(C)(C)C)CC2)cc1 (stereo not given)	6.01 µM (inactive)	1.63 µM (inactive)	2.34 µM (inactive)	4.8 µM (inactive)	11.5 µM (inactive)	1.99 µM (inactive)	2.25 µM (inactive)	12.1 µM (inactive)	2.04 µM (inactive)	1.84 µM (inactive)	1.88 µM (inactive)	3.78 µM (inactive)	2.37 µM (inactive)	3.86	2.53 µM (inactive)	1.71 µM (inactive)		1.79 µM (inactive)	5.52 µM (inactive)	4.99 µM (inactive)
CC1(C)CCN2C(=O)C34CCCC3CC21S4 (stereo not given)	> 100 µM (inactive)	> 100 µM (inactive)	> 100 µM (inactive)	> 100 µM (inactive)	> 100 µM (inactive)		> 100 µM (inactive)	> 100 µM (inactive)	> 100 µM (inactive)	> 100 µM (inactive)	> 100 µM (inactive)	> 100 µM (inactive)	> 100 µM (inactive)	> 100	> 100 µM (inactive)	> 100 µM (inactive)	> 100 µM (inactive)	> 100 µM (inactive)	> 100 µM (inactive)	> 100 µM (inactive)
COc1ccc(-c2nc(SC)n(C3OC(COC(C)=O)C(OC(C)=O)C(OC(C)=O)C3OC(C)=O)c(=O)c2C#N)cc1 (stereo not given)	> 100 µM (inactive)	65.6 µM (inactive)	34.7 µM (inactive) and 39.5 µM (inactive)	39.7 µM (inactive)			> 100 µM (inactive)	34.9 µM (inactive)	> 100 µM (inactive)		> 100 µM (inactive) and 72.1 µM (inactive)	> 100 µM (inactive)	> 100 µM (inactive)	> 100	> 100 µM (inactive)	> 100 µM (inactive)		58.1 µM (inactive)		> 100 µM (inactive)
CCOC(=O)C1CSCCSC1	> 100 µM (inactive)		> 100 µM (inactive)	> 100 µM (inactive)	> 100 µM (inactive)	17.5 µM (inactive)	> 100 µM (inactive)	> 100 µM (inactive)	> 100 µM (inactive)		> 100 µM (inactive)	> 100 µM (inactive)	> 100 µM (inactive)	> 100	> 100 µM (inactive)	> 100 µM (inactive)	> 100 µM (inactive)			
Nc1ccc(Nc2cc(=O)[nH]c(=O)[nH]2)cc1Cl	> 100 µM (inactive)	> 100 µM (inactive)	> 100 µM (inactive)	> 100 µM (inactive)	> 100 µM (inactive)	> 100 µM (inactive)	> 100 µM (inactive)	> 100 µM (inactive)	> 100 µM (inactive)	> 100 µM (inactive)	> 100 µM (inactive)	> 100 µM (inactive)	> 100 µM (inactive)	> 100	> 100 µM (inactive)	> 100 µM (inactive)		> 100 µM (inactive)	> 100 µM (inactive)	> 100 µM (inactive)
CN(C)c1ccc(C(N)=O)cn1	> 100 µM (inactive)	> 100 µM (inactive)	> 100 µM (inactive)	> 100 µM (inactive)	> 100 µM (inactive)	> 100 µM (inactive)	> 100 µM (inactive)	> 100 µM (inactive)	> 100 µM (inactive)	> 100 µM (inactive)	> 100 µM (inactive)	> 100 µM (inactive)	> 100 µM (inactive)	> 100	> 100 µM (inactive)	> 100 µM (inactive)	> 100 µM (inactive)		> 100 µM (inactive)	
Cc1cc(C)c2c(c1)C(=O)C1(C2)Cc2c(ccc(C)c2C)C1=O (stereo not given)	> 100 µM (inactive)	22.3 µM (inactive)	> 100 µM (inactive)	> 100 µM (inactive)	> 100 µM (inactive)	> 100 µM (inactive)	> 100 µM (inactive)	> 100 µM (inactive)	> 100 µM (inactive)	> 100 µM (inactive)	> 100 µM (inactive)	> 100 µM (inactive)	> 100 µM (inactive)	> 100	> 100 µM (inactive)	> 100 µM (inactive)	> 100 µM (inactive)	> 100 µM (inactive)		> 100 µM (inactive)
O=C1/C(=C/c2ccccc2S)N=C(c2ccccc2)N1c1nc2c(Cl)cc(Cl)cc2s1	40.4 µM (inactive)		23.4 µM (inactive)	22.3 µM (inactive)	36.3 µM (inactive)	27.5 µM (inactive)	27.7 µM (inactive)	23.7 µM (inactive)	15.2 µM (inactive)	21.8 µM (inactive)	35.4 µM (inactive)	32.5 µM (inactive)	21.8 µM (inactive)	31.1	18.1 µM (inactive)	23.5 µM (inactive)	23.7 µM (inactive)	25.9 µM (inactive)	18.7 µM (inactive)	32.6 µM (inactive)
O=S(=O)(O)c1cc(O)c2c(O)c(/N=N/c3cccc4ccccc34)c(S(=O)(=O)O)cc2c1	> 100 µM (inactive)	> 100 µM (inactive)	> 100 µM (inactive)	> 100 µM (inactive)	> 100 µM (inactive)		> 100 µM (inactive)	> 100 µM (inactive)	> 100 µM (inactive)	> 100 µM (inactive)	> 100 µM (inactive)	> 100 µM (inactive)	> 100 µM (inactive)	> 100	> 100 µM (inactive)	> 100 µM (inactive)	> 100 µM (inactive)	> 100 µM (inactive)	> 100 µM (inactive)	> 100 µM (inactive)
CSc1ccc(/C=C2\N=C(c3ccccc3)N(/N=C3\C(=O)Nc4ccccc43)C2=O)cc1	> 100 µM (inactive)	> 100 µM (inactive)	> 100 µM (inactive)	> 100 µM (inactive)	> 100 µM (inactive)	> 100 µM (inactive)	> 100 µM (inactive)	> 100 µM (inactive)	22.6 µM (inactive)		> 100 µM (inactive)	> 100 µM (inactive)	> 100 µM (inactive)	> 100	> 100 µM (inactive)	> 100 µM (inactive)	> 100 µM (inactive)	> 100 µM (inactive)	> 100 µM (inactive)	> 100 µM (inactive)
CCOC(=O)C1=CNC(C(=O)OCC)C1c1cccn1-c1ccccc1 (stereo not given)	12.5 µM (inactive)		29.6 µM (inactive)	29.4 µM (inactive)	31.3 µM (inactive)	29.4 µM (inactive)	27.1 µM (inactive)	38.6 µM (inactive)	24.8 µM (inactive)		28.1 µM (inactive)	41.3 µM (inactive)	21.2 µM (inactive)	40.2	20 µM (inactive)	32.8 µM (inactive)	19.4 µM (inactive)	32.9 µM (inactive)	52.1 µM (inactive)	32.6 µM (inactive)
